In PMC7999199, “Novel Cationic Meso-Arylporphyrins and Their Antiviral Activity against HSV-1” (Pharmaceuticals, 2021):

Experiment: Micelle size of Pluronic F-127 formulations by dynamic light scattering
Type: physicochemical
Conditions: Pluronic F-127 micelles, concentration 3·10^−6 M
Description: The size of obtained micelles for the compounds 3a,b was determined by the dynamic light scattering (DLS) method. The micelle size for compounds 3a,b was 17.53 nm and 14.69 nm, respectively, at concentrations of 3·10^−6 M (Figure 4a,b). It has previously been reported that a similar micelle size increased the efficiency and circulation of the encapsulated drug in the blood due to the small scale, which avoided the capture of nanoparticles by the reticular endothelial system.
NMR (^1H and ^13C) spectra of the test solutions in CDCl3 or (CD3OD) were recorded on a Bruker MSL-300 pulse Fourier transform spectrometer (Bruker, Billerica, MA, USA) at frequencies of 300.3 and 75.49 MHz, respectively, with internal deuterium stabilization. Tetramethylsilane was used as an external standard. IR spectra (4000–500 cm^–1) were recorded on Infralyum FT 02 Fourier spectrometer (Lumex Instruments Research and Production Company, Moscow, Russia) with a resolution of 1 cm^−1. Samples were prepared as KBr tablets. Dynamic light scattering was measured using Malvern Zetasizer Nano ZS (Malvern, United Kingdom). […] Mass spectra were recorded using an 1100 LCMSD liquid chromatograph (Agilent Technologies, Santa Clara, CA, USA) equipped with a mass spectrometric chemical ionization detector at atmospheric pressure (HIAD, APCI, ESI) and with a UV spectrophotometric detector (DAD). […]

O=C(CC[n+]1ccccc1)Oc1ccc(-c2c3nc(c(-c4ccc(OC(=O)CC[n+]5ccccc5)cc4)c4ccc([nH]4)c(-c4ccc(OC(=O)CC[n+]5ccccc5)cc4)c4nc(c(-c5ccc(OC(=O)CC[n+]6ccccc6)cc5)c5ccc2[nH]5)C=C4)C=C3)cc1 [3a]
micelle size (DLS): 17.53 nm
